Results reported in PubChem BioAssay AID2305 (GlaxoSmithKline (GSK), 2010).

These compounds were tested on P. falciparum 3D7 growth, pLDH absorbance (assay: P. falciparum 3D7 growth inhibition, dose response, strain 3D7 (AID 2305)).

| SMILES | IC50 [nM] |
| --- | --- |
| CN1CCN(CCCN(Cc2cccc(-c3ccc(CNCc4ccc5c(c4)OCO5)cc3)c2)C(=O)Nc2ccccc2)CC1 | 680 |
| CN1CCN(c2ccnc3ccc(NC(=O)Nc4cccc5c(C#N)cccc45)cc23)CC1 | 1050 |
| NCCCCNc1cc(-c2ccnc(Nc3cccc(Cl)c3)n2)ccn1 | 280 |
| COc1ccc2nccc(NN=Cc3ccc([N+](=O)[O-])cc3)c2c1 | 710 |
| CN1CCCC(CN2CCN(Cc3ccc(-c4cccc(-c5nc6ccccc6[nH]5)c4)cc3)CC2)C1 (centres undefined) | 130 |
| COc1cc(Nc2nccc(-c3c(-c4cccc(NC(=O)c5c(F)cccc5F)c4)nn4ncccc34)n2)cc(OC)c1OC | 30 |
| CN(C)CCCNc1ncnc2c1[nH]c1ccc(Br)cc12 | 320 |
| CCOC(=O)c1ccc(NC(=O)NNC(=O)c2ccc(CCN3CCC(c4nc(COCC(F)(F)F)c(-c5ccc(F)cc5)o4)CC3)cc2)cc1 | 570 |
| COc1cccc(C(=O)N2CCOC(CCN3CCC(c4ccccc4)CC3)(c3ccc(Cl)c(Cl)c3)C2)c1 (centres undefined) | 510 |
| CCOc1cc(Br)c(C(C)NC(=O)c2ccccc2)cc1OCC (centres undefined) | 860 |
| O=C(NCc1ccccc1)O[C@@H]1CNCC[C@H]1c1ccc(C(O)Cc2ccccc2)cc1 (some centres undefined) | 580 |
| CCCCCCCCCN1CC[C@@H](CCCc2ccnc3ccc(O)cc23)[C@@H](CC)C1 | 290 |
| COc1cc2c(c(Cl)c1OC)CCN(C(=O)C(F)(F)F)CC2c1ccccc1 (centres undefined) | 440 |
| O=S(=O)(NCCN1CCCC1)c1cccc(-c2ccc(CNCc3ccsc3)cc2)c1 | 800 |
| Cc1ccc2c(NN=Cc3ccccc3[N+](=O)[O-])cc(C)nc2c1 | 420 |
| C#CC[C@@H](NC(N)=O)C(=O)O | 190 |
| Nc1ccc(-c2nc3cc(C4=N[C@H]5CCCC[C@H]5N4)ccc3o2)cc1[N+](=O)[O-] | 1120 |
| O=C(/C=C/c1cc(C(F)(F)F)ccc1F)NC1CCC(CN2CCC(c3c[nH]c4ccccc34)CC2)CC1 (centres undefined) | 820 |
| O=C1c2ccccc2-n2c1nc1ccccc1c2=O | 860 |
| N=C(N)c1cccc(OCCCOc2cccc(NC(=O)Nc3ccc([N+](=O)[O-])cc3)c2)c1 | 860 |

| SMILES | IC50 [nM] |
| --- | --- |
| COc1ccc(CNCc2ccc(-c3cccc(-c4nc5ccc(F)cc5[nH]4)c3)cc2)cc1 | 200 |
| CC(=O)Oc1c(C2CCN(CCCCNC(=O)c3ccc(NC(=O)c4ccc(Cl)cc4)cc3)CC2)ccc2ccccc12 | 880 |
| O=C(N[C@@H](Cc1ccccc1)C(=O)NCCN1CCOCC1)c1ccc(O)c(-c2ccc(Cl)c(Cl)c2)c1 | 920 |
| Nc1nc(NCC2CCC(CNS(=O)(=O)c3cccc4ccccc34)CC2)nc2ccccc12 (centres undefined) | 800 |
| CCc1cn2c3c(cc(C(=O)N[C@@H](Cc4ccccc4)[C@H](O)CNCc4ccccc4C)cc13)N(C)S(=O)(=O)CC2 | 270 |
| COc1cccc2cc(C(=O)N[C@@H](CC(C)C)C(=O)Nc3cc(F)ccc3Br)oc12 | 970 |
| Cc1cc(O)c(C(C)C)cc1C1(c2cc(C(C)C)c(O)cc2C)OC(=O)c2ccccc21 | 870 |
| O=C(Nc1ccc(CCNCCCc2ccccc2)cc1)Nc1ccc(Cl)c(Cl)c1 | 270 |
| COc1ccc(-c2ccc(NC(=O)c3ccc(Cl)cc3)cc2)cc1CN1CCN(C)CC1 | 820 |
| O=S(=O)(Nc1cccc(CCN2CCC(N3CCCCC3)CC2)c1)c1cccc2ccccc12 | 940 |
| Fc1ccc2nccc(NN=Cc3ccccc3Cl)c2c1 | 920 |
| Cc1cnc(C(=O)Nc2ccc(-c3cccc(-c4nc5ccccc5[nH]4)c3)cc2)cn1 | 830 |
| COc1ccc(Cl)c(CC2c3cc(O)c(Cl)cc3CCN2C)c1 (centres undefined) | 700 |
| Cc1nc(-c2nc(N3CCC(C(N)=O)CC3)ncc2-c2ccsc2)sc1C | 900 |
| COc1ccc(CCNCc2ccc3c(C)cc(N)nc3c2)cc1 | 570 |
| Cc1nc2nc(N)nc(N)c2c(C)c1Cc1ccc(C(F)(F)F)cc1 | 750 |
| CN(C)CCNC(=O)N1CCCN(c2ncnc3cc(-c4ccccc4)sc23)CC1 | 790 |
| C=CCNC(=O)C(C)c1ccc2cc(OC)ccc2c1 (centres undefined) | 420 |
| COc1ccc(C(C(=O)NC2CCN(C[C@H](O)c3ccnc4ccc(OC)cc34)CC2)N2CCN(c3ccc(F)cc3)CC2)cc1 (some centres undefined) | 210 |
